This note sets out measurements from publication PMC4423475, “Structure-based discovery of the first non-covalent inhibitors of Leishmania major tryparedoxin peroxidase by high throughput docking” (Scientific Reports, 2015).

By Kd is commonly meant the equilibrium constant for the complex coming apart.

Assay [1] concerns the target T1, horseradish peroxidase (HRP) (Armoracia rusticana, UniProt P00433).
T1 sequence (P00433 31-353): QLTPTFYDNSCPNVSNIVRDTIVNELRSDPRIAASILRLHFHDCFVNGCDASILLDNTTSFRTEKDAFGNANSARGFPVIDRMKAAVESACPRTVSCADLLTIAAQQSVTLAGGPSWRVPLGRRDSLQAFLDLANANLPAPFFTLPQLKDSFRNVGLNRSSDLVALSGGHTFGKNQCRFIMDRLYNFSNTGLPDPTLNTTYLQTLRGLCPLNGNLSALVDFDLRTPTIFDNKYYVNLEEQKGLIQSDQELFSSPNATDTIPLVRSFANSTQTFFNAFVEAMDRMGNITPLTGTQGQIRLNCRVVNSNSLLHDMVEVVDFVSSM
As to the kind of experiment: HRP inhibition control (compounds tested for their ability to inhibit HRP). The assay is classed as biochemical. As to conditions: compound at 100 μM; for HRP inhibition: first series (HTD hits). The procedure: (§1) The compounds ability to inhibit TXNPx has been evaluated by simply measuring the following ratio: ΔA/ΔA0 where ΔA0 is the difference in absorbance between HRP and compound I (ΔA0 = 0.04) and ΔA is the difference in absorbance between HRP and compound I in the presence of LmTXNPx and 100 μM inhibitors. All the compounds have been previously tested for their ability to inhibit HRP at a concentration of 100 μM.

Assay [2] has as its target T2, LmTXNPx (Leishmania major, UniProt Q4QF76). As to the kind of experiment: Surface plasmon resonance, immobilized LmTXNPx. Format: binding. As to conditions: SPR, 1:1 steady-state affinity model. The procedure:
SPR experiments were carried out using a SensiQ Pioneer system (SensiQ, ICxNomadics Inc.). The interaction of the immobilized protein with the analytes was detected by mass concentration-dependent changes of the refractive index on the sensor chip surface. The changes in the observed SPR signal are expressed as Resonance Units (RU). Typically, a response change of 1000 RU corresponds to a change in the surface concentration on the sensor chip of about 1 ng of protein per mm^2.
The sensor chips (COOH5 SensiQ) were chemically activated by injection of 250 μl of a 1:1 mixture of N-hydroxysuccinimide (50 mM) and N-ethyl-N-(3-dimethylaminopropyl)carbodiimide (200 mM) at a flow rate of 25 μl/min. Recombinant LmTXNPx was immobilized on the activated sensor chip via amine coupling. The reaction was carried out at a rate of […] in 20 mM sodium acetate at pH 4.5; the remaining ester groups were blocked by injecting 100 μL of 1 M ethanolamine hydrochloride. Recombinant LmTXNPx was captured to approximately 2000 RU. The analytes were dissolved at a concentration of 10 mM or 20 mM in dimethylsulfoxide (DMSO), and diluted 1:100 in HEPES-buffered saline (HBS: 10 mM HEPES, pH 7.4; 150 mM NaCl; 0.005% surfactant P20).
FastStep injections of samples (100 or 200 μM analytes in HBS + 1% DMSO), and reference buffer (HBS + 1% DMSO) were performed: either the inhibitor and reference buffer were automatically diluted in HBS and injected by 7 serial doubling steps (step contact time = 15 s, nominal flow rate = 200 μl/min). The following analytes were injected: 0–17 s: analyte concentration = 3.12 μM; 17–33 s: 6.25 μM; 33–48 s: 12.5 μM; 48–62 s: 25 μM; 63–78 s: 50 μM; 78–93 s: 100 μM; 94–100 s: 200 μM; for each injection, a maximal RU value was obtained. In control experiments, the sensor chip was treated as described above in the absence of immobilized protein.
Each sensorgram is the average of three different experiments. Sensorgrams were subjected to global analysis using QDat software 2.2.0.23, and for each analyte concentration a % Response was calculated, allowing a local Rmax fit (according to the molecular weight of each compound) and displaying as a response relative to the Rmax. % Response vs. analyte concentration was plotted and a KD value was calculated for each analyte by fitting a simple 1:1 steady-state affinity model to the data.
(In SPR one partner is held on a chip, and binding of the other changes the refractive index at the surface.)

Assay [3] concerns the target T2, LmTXNPx. The experiment in a line: HRP-H2O2 competition assay (LmTXNPx inhibition assay). The assay is classed as biochemical.
Excerpt: To determine the ability of the selected compounds to inhibit the catalytic activity of LmTXNPx, we used the horseradish peroxidase (HRP)-H2O2 competition assay developed by Augusto and co-workers[16]. HRP is well known to react with H2O2 in a two-electron oxidation process that leads to the formation of HRP compound I (HRP-I), a stable HRP oxidized intermediate that can be followed at 398 nm. Reduced LmTXNPx competes with HRP for the H2O2 substrate, leading to a decrease in HRP-I yield that is proportional to LmTXNPx concentration. The addition of LmTXNPx inhibitors leads to a decrease in free LmTXNPx concentration and consequent increase in the HRP-I yield.
Competition kinetics have been performed for determining the activity of the compounds selected by HTD. The ability of the compounds to inhibit the H2O2 reduction by LmTXNPx has been determined by competition approach utilizing the well-known reactivity of H2O2 with horseradish peroxidase (HRP)[16][20][26]. HRP is a heme-containing peroxidase, which uses hydrogen peroxide (by reducing it to water) to oxidize different organic substrates to free radicals. The reaction takes place in three steps: • PFe(III) + H2O2 → P^·+Fe(IV) = O + H2O • P^·+Fe(IV) = O + X → X^• + PFe(IV) = O • PFe(IV) = O + X + 2H^+ → PFe(III) + X^· + H2O
Where PFe(III) is HRP (the native protein), P^·+Fe(IV) = O is the HRP compound I (HRP-I), PFe(IV) = O is the HRP compound II (HRP-II) and X is a generic substrate. The formation of HPR-I results in a change in light absorption in the visible range (Δε403 nm = 5.4 × 10^4 M^−1cm^−1). For kinetic studies the HRP oxidation is monitored at 398 nm (Δε398 nm = 4.2 × 10^4 M^−1cm^−1) instead of 403 nm (wavelength corresponding to the maximum of HRP absorbance) in order to avoid interferences arising from HRP-I reduction to HRP-II. This method is usually used to determine the second order rate constant of 2Cys- Peroxiredoxin reaction with hydrogen peroxide and peroxinitrite.
Thus, H2O2-mediated HRP oxidation is a two-electron oxidation process, leading to the formation of HRP-I, followed at 398 nm. The addition of increasing concentrations of pre-reduced LmTXNPx led to a lower yield in HRP-I since two reactions take place in solution: [drawing 1] [drawing 2]
Where I indicates the inhibitor and LmTXNPx-I indicates the complex between LmTXNPx and the inhibitor. The addition of active LmTXNPx inhibitors led to a decrease in the free LmTXNPx and the consequent recover in the HRP-I yield and therefore to a partial or total recover of the ΔA.
The HRP-based indirect kinetic assays to test the inhibitors was performed in the following way: HRP 2 μM was exposed to H2O2 0.25 μM in sodium phosphate buffer pH 7.4 and 25°C, either in the absence or in the presence of the indicated concentrations of reduced LmTXNPx and in the absence or in the presence of inhibitors. The relative changes in absorbance at 398 nm (ΔA/ΔA0), reflecting HRP-I formation, were determined.
as §1

[4] abbreviates: first series (HTD hits), HRP 2 µM, H2O2 0.25 µM, 2.5 µM LmTXNPx, 100 µM inhibitors, pH 7.4, 25 °C.
[5] abbreviates: residual activity of HRP, HRP 2 μM, H2O2 0.25 μM, 2.5 μM LmTXNPx, 100 μM inhibitors, sodium phosphate buffer pH 7.4, 25°C.

T2 sequence (Q4QF76 entry or part of it): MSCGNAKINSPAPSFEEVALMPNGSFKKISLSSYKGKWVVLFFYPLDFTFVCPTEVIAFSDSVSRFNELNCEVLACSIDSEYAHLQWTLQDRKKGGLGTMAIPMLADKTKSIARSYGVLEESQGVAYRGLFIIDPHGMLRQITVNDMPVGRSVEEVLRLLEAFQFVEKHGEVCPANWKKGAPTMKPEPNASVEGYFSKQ

For `COc1cc2cc(CN(Cc3ccc(F)cc3)Cc3nnnn3Cc3ccccc3)c(=O)[nH]c2cc1OC` [Compound 1, 3-((((1-Benzyl-1H-tetrazol-5-yl)methyl)(4-fluorobenzyl)amino)methyl)-6,7-dimethoxyquinolin-2(1H)-one], the HRP inhib. result in assay [1] is “No”. Further, the HRP inhibition entry in assay [1] is “No”. This compound registered a Kd at LmTXNPx [2] of 290 ± 13 µM. In addition, the figures for the “(ΔA/ΔA0) × 100” value on LmTXNPx [3] (setting [4]) and on LmTXNPx [3] (setting [5]) were 47 ± 6% and 52 ± 10%, respectively.
For `COc1cc2cc(CN(Cc3ccc(F)cc3)Cc3nnnn3Cc3cccc([N+](=O)[O-])c3)c(=O)[nH]c2cc1OC` [Compound 2, 3-(((4-Fluorobenzyl)((1-(3-nitrobenzyl)-1H-tetrazol-5-yl)methyl)amino)methyl)-6,7-dimethoxyquinolin-2(1H)-one], the HRP inhib. result in assay [1] is listed as “No”. This compound also came in with a Kd at LmTXNPx [2] of 172 ± 6 µM. On LmTXNPx [3] (setting [5]), the “(ΔA/ΔA0) × 100” value is 37 ± 9%.
Taken in the same sequence, the figures for `COc1cc2cc(CN(Cc3ccc(F)cc3)Cc3nnnn3Cc3cccc(N)c3)c(=O)[nH]c2cc1OC` [Compound 3, 3-((((1-(3-Aminobenzyl)-1H-tetrazol-5-yl)methyl)(4-fluorobenzyl)amino)methyl)-6,7-dimethoxyquinolin-2(1H)-one] were “No”, 354 ± 12 µM and 44 ± 6%.
Compound `COc1cc2cc(CN(Cc3ccc(F)cc3)Cc3nnnn3Cc3cccc(N(C)C)c3)c(=O)[nH]c2cc1OC` [Compound 4, 3-((((1-(3-(Dimethylamino)benzyl)-1H-tetrazol-5-yl)methyl)(4-fluorobenzyl)amino)methyl)-6,7-dimethoxyquinolin-2(1H)-one] yielded a Kd on LmTXNPx [2] of 156 ± 5 µM.
Regarding `COc1cc2cc(CN(Cc3ccc(F)cc3)Cc3nnnn3Cc3cccc(I)c3)c(=O)[nH]c2cc1OC` [Compound 5, 3-(((4-Fluorobenzyl)((1-(3-iodobenzyl)-1H-tetrazol-5-yl)methyl)amino)methyl)-6,7-dimethoxyquinolin-2(1H)-one], the HRP inhib. result in assay [1] is “No”. For the same compound, binding on LmTXNPx [2] was put at a Kd of 281 ± 11 µM. Moreover, on LmTXNPx [3] (setting [5]), the “(ΔA/ΔA0) × 100” value is reported as 71 ± 6%.
Taken in the same sequence, the figures for `COc1cc2cc(CN(Cc3ccc(F)cc3)Cc3nnnn3Cc3cccc(-c4ccccc4)c3)c(=O)[nH]c2cc1OC` [Compound 6, 3-((((1-([1,1′-Biphenyl]-3-ylmethyl)-1H-tetrazol-5-yl)methyl)(4-fluorobenzyl)amino)methyl)-6,7-dimethoxyquinolin-2(1H)-one] were “No”, 52 ± 1 µM and 75 ± 9%.
In the same order, the values of `COc1ccc2[nH]c(=O)c(CN(Cc3ccc(F)cc3)Cc3nnnn3Cc3ccccc3)cc2c1` [Compound 7, 3-((((1-Benzyl-1H-tetrazol-5-yl)methyl)(4-fluorobenzyl)amino)methyl)-6-methoxyquinolin-2(1H)-one] are “No”, 47 ± 1 µM and 60 ± 7%.
Taken in the same sequence, the figures for `O=c1[nH]c2ccccc2cc1CN(Cc1ccc(F)cc1)Cc1nnnn1Cc1ccccc1` [Compound 8, 3-((((1-Benzyl-1H-tetrazol-5-yl)methyl)(4-fluorobenzyl)amino)methyl)quinolin-2(1H)-one] were “No”, 104 ± 4 µM and 45 ± 15%.
Regarding `COc1cc2cc(CN(Cc3ccccc3)Cc3nnnn3Cc3ccccc3)c(=O)[nH]c2cc1OC` [Compound 9, 3-((((1-Benzyl-1H-tetrazol-5-yl)methyl)benzylamino)methyl)-6,7-dimethoxyquinolin-2(1H)-one], the HRP inhib. result in assay [1] was “Yes”. Also, the Kd at LmTXNPx [2] was found to be 74 ± 3 µM.
As to `COc1cc2cc(CN(Cc3ccc(Cl)cc3)Cc3nnnn3Cc3ccccc3)c(=O)[nH]c2cc1OC` [Compound 10, 3-((((1-Benzyl-1H-tetrazol-5-yl)methyl)(4-chlorobenzyl)amino)methyl)-6,7-dimethoxyquinolin-2(1H)-one], the HRP inhib. entry in assay [1] is given as “Yes”. This compound showed a Kd at LmTXNPx [2] of 63 ± 3 µM.
On to `COc1cc2cc(CN(Cc3ccc(Br)cc3)Cc3nnnn3Cc3ccccc3)c(=O)[nH]c2cc1OC` [Compound 11, 3-((((1-Benzyl-1H-tetrazol-5-yl)methyl)(4-bromobenzyl)amino)methyl)-6,7-dimethoxyquinolin-2(1H)-one], for which the HRP inhib. entry in assay [1] is “No”. The Kd at LmTXNPx [2] is 112 ± 4 µM. Moreover, the “(ΔA/ΔA0) × 100” value on LmTXNPx [3] (setting [5]) stood at 37 ± 20%.
Take `O=C(Nc1cc(C(=O)Nc2ccc(S(=O)(=O)[O-])c3cc(S(=O)(=O)[O-])cc(S(=O)(=O)[O-])c23)cc(C(=O)Nc2ccc(S(=O)(=O)[O-])c3cc(S(=O)(=O)[O-])cc(S(=O)(=O)[O-])c23)c1)Nc1cc(C(=O)Nc2ccc(S(=O)(=O)[O-])c3cc(S(=O)(=O)[O-])cc(S(=O)(=O)[O-])c23)cc(C(=O)Nc2ccc(S(=O)(=O)[O-])c3cc(S(=O)(=O)[O-])cc(S(=O)(=O)[O-])c23)c1.[Na+].[Na+].[Na+].[Na+].[Na+].[Na+].[Na+].[Na+].[Na+].[Na+].[Na+].[Na+]` [NF864]: in assay [1], the HRP inhibition entry was “No”. Moreover, the “(ΔA/ΔA0) × 100” value on LmTXNPx [3] (setting [4]) was determined as 16 ± 6%.
For the compound `CCOC(=O)Cc1csc(NC(=O)CSc2nc(C(C)C)nc3sc(C)c(C)c23)n1` [NF2013], in assay [1], the HRP inhibition entry was “Yes”.
